# Assay results as given in patent US20200147217A1, “FUCOIDAN-BASED THERAGNOSTIC COMPOSITION” (National Cancer Center, priority 2018, published 2020).
# Columns and labels:
# [1] = tested on: HT1080 human fibrosarcoma-transplanted animal model; experiment: Tumor-targeting fluorescence imaging after intravenous injection; type: in vivo, mice
# Experimental: In Example 11, in order to analyze a tumor-targeting effect of a photosensitizer-fucoidan conjugate, an experiment was performed, in which the conjugate is intravenously administered to an experimental animal and a fluorescence image is taken.
# Phosphate buffer (negative control), a free photosensitizer (free Ce6), or a photosensitizer-fucoidan conjugate (Ce6-Fucoidan) was injected intravenously, respectively, into an HT1080 human fibrosarcoma-transplanted animal model, and fluorescence images were taken with an IVIS imaging machine at 5 minutes and 24 hours after the injection (λex 660/20 nm, λem 710/40 nm). […] In FIG. 19B, fluorescence image signal values of the tumor tissues are quantified to compare the amount of photosensitizer accumulated in the tumor tissues. […] FIG. 19C illustrates results obtained by allowing mice to be euthanized, obtaining spleen, kidney, liver, and lung tissues, and identifying ex vivo fluorescence images thereof. […] FIG. 19D illustrates results obtained by freezing the obtained tumor tissues to prepare frozen sections, and then identifying, with a confocal microscope, a degree of penetration of the photosensitizer into each tumor tissue.
# [2] = tested on: HT1080 subcutaneous xenograft tumor; experiment: Tumor growth inhibition in HT1080 xenograft model; type: in vivo, Nude mice (Balb/c nude); conditions: 5 mg Ce6 equivalent/kg i.v., +PDT 670 nm, 20 J/cm^2
# Experimental: A photodynamic therapeutic effect caused by a photosensitizer-fucoidan conjugate was evaluated in a tumor-transplanted animal model. A tumor model into which HT1080 cancer cells are subcutaneously xenografted was injected intravenously with a free photosensitizer (free Ce6) or Ce6-Fucoidan, and light irradiation (PDT) was performed on the tumor site using a 670 nm laser. To evaluate an antitumor effect, the tumor size was measured daily for 10 days, and differences between the respective groups were analyzed. For the control experimental animals, phosphate buffer containing no photosensitizer was injected intravenously.
# HT1080, a human fibrosarcoma cell line, was obtained from the American Type Culture Collection (ATCC, USA). The HT1080 cells were cultured, under conditions of 37° C., 5% carbon dioxide, and standard humidity, in Eagle's Minimum Essential Media (MEM) medium supplemented with 10% fetal bovine serum (FBS) and 1% penicillin/streptomycin. Nude mice (Balb/c nude) were subcutaneously injected with HT1080 cancer cells as much as 5×10^6 cells/100 μL, and after 5 to 7 days, it was checked whether subcutaneous tumors are produced. […] The tumor size was measured until Day 10 to prepare a tumor growth graph, and the tumor size was compared between the respective groups. […]
substance,measurement,setting,value
chlorin e6 [free Ce6],fluorescence signal caused by the photosensitizer in tumor frozen sections,"[1]; confocal microscope, 24 hours after administration",hardly observed
same,fluorescence image signal in tumor tissues,"[1]; intravenous, 24 hours after injection, IVIS",no fluorescence image signal even in tumor tissues
same,retention in the body,"[1]; intravenous, up to 24 hours, fluorescence imaging",hardly remains in the body at 24 hours
same,tumor growth inhibitory effect compared with the control,[2],no statistically significant tumor growth inhibitory effect
